# Literature values as cited in US20040028772A1, “Method for preparation of chewing gum with customer acceptable taste” (priority 2000, published 2004).
# Where a name gives a salt, the structure may show the parent alone.
Compound,water-soluble / solubility in water [g/100 ml],water solubility (in words)
CC(=O)Nc1ccc(O)cc1 [paracetamol],1.4,
Clc1ccc(COC(Cn2ccnc2)c2ccc(Cl)cc2Cl)c(Cl)c1 (stereo not shown) [Miconazol],< 0.001,
[H]/N=C(\N/C(=N/[H])NCCCCCCNC(=N)NC(=N)Nc1ccc(Cl)cc1)Nc1ccc(Cl)cc1 [Chlorhexidine dihydrochloride],0.06,
CC(=O)O.CC(=O)O.NC(=N\CCCCCC/N=C(N)/N=C(\N)Nc1ccc(Cl)cc1)/N=C(\N)Nc1ccc(Cl)cc1 [Chlorhexidine diacetate],1.9,
CC1=C(/C=C/C(C)=C/C=C/C(C)=C/CO)C(C)(C)CCC1 [A-vitamin],,not water-soluble
N=C(NCCCCCCNC(=N)NC(=N)Nc1ccc(Cl)cc1)NC(=N)Nc1ccc(Cl)cc1.O=C(O)[C@H](O)[C@@H](O)[C@H](O)[C@H](O)CO.O=C(O)[C@H](O)[C@@H](O)[C@H](O)[C@H](O)CO [Chlorhexidine digluconat],,mixable
C[C@]12CC[C@H]3[C@@H](CCC4=CC(=O)CC[C@@H]43)[C@@H]1CC[C@@H]2O [nandrolone],,heavily soluble
